Reference: PubChem BioAssay (NCI)
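The compound was tested at five concentrations on cells cultured in 96-well plates, with a 48-hour exposure period. GI50 = concentration required for 50% inhibition of growth. Definition used: TGI = concentration required for complete inhibition of growth.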

Columns and labels:
Experiment in all cases: DTP human tumour cell line panel, 48 h
[1] = tested on: DMS 114 small cell lung
[2] = tested on: M19-MEL melanoma
[3] = tested on: DMS 273 small cell lung
[4] = tested on: MDA-MB-435
[5] = tested on: MDA-MB-231 breast
[6] = tested on: HS 578T breast
[7] = tested on: PC-3 prostate
[8] = tested on: T-47D breast
[9] = tested on: XF 498 CNS
[10] = tested on: MDA-N

Compound | TGI [1] | TGI [2] | TGI [3] | GI50 [4] | TGI [4] | GI50 [5] | TGI [5] | GI50 [6] | TGI [6] | GI50 [7] | TGI [7] | GI50 [8] | TGI [8] | TGI [9] | TGI [10]
CN(C=O)/C=C/c1cc(O)ccc1O | > 100 µM | 44.9 µM | > 54.3 µM |  |  |  |  |  |  |  |  |  |  |  | 
CC/C=C\C/C=C\C[C@H](O)C/C=C1/C(=O)C=C[C@@H]1C/C=C\CCCC(=O)OC |  |  |  | 1.21 µM | 6.26 µM | 3 µM | 10.3 µM | 6.59 µM | 46.7 µM | 2.54 µM | 6.68 µM | 2.1 µM | 9.38 µM |  | 
OCNCCNc1nc2ccccc2c2[nH]c3ccccc3c12 |  |  |  | 1.46 µM | 5.11 µM | 1.24 µM | 3.77 µM | 1.46 µM | 3.87 µM | 0.879 µM | 2.11 µM |  |  |  | 
CNC(=O)CN(CC(N)=O)C(N)=O |  | > 100 µM | > 100 µM |  |  |  |  |  |  |  |  |  |  | > 100 µM | 
O=C1CN(/N=C/c2ccc(-c3ccc(F)cc3)o2)C(=O)N1 |  |  |  |  | 41.1 µM |  | > 100 µM |  | > 100 µM |  | > 100 µM |  | > 100 µM |  | 38.6 µM
C/C=C1\C(=O)OC2CCN3CCC(COC(=O)C(C)(O)C(C)C1O)C23 (centres undefined) |  |  |  |  | > 100 µM |  | > 100 µM |  | > 100 µM |  | > 100 µM |  | > 100 µM |  | > 100 µM
CC1CC2(C)CC(=O)C1C1C(=O)N(CCN3CCCCC3)C(=O)C12 (centres undefined) |  |  |  | > 100 µM | > 100 µM | > 100 µM | > 100 µM | > 100 µM | > 100 µM | > 100 µM | > 100 µM | > 100 µM | > 100 µM |  | 
CC1(C)CC[C@]2(C(N)=O)CC[C@]3(C)C(=CC[C@@H]4[C@@]5(C)C/C(=C/c6ccncc6)C(=O)C(C)(C)[C@@H]5CC[C@]43C)[C@@H]2C1 |  |  |  |  |  | 1.86 µM | 4.15 µM | 3.07 µM | > 100 µM | 1.37 µM | 3.51 µM | 2.55 µM | 12.4 µM |  | 
COc1ccc(OC)c2c3c(ccc12)C(c1ccccc1)OC3=O (centres undefined) | > 100 µM | > 100 µM | > 100 µM |  |  |  |  |  |  |  |  |  |  |  | 
COC(=O)c1c(C)nc(C)c(NO)c1-c1ccccc1C(F)(F)F |  |  |  |  | 37.6 µM |  | 27.9 µM |  | > 100 µM |  | > 100 µM |  | 66.1 µM |  | 30.5 µM
CCOC(=O)C(NC(=O)c1[nH]cnc1/N=N/N(C)C)C(C)C (centres undefined) | > 100 µM | > 100 µM | > 100 µM |  |  |  |  |  |  |  |  |  |  |  | 
CC1=C(C(=O)Nc2ccc(Cl)c(Cl)c2)C(c2ccccc2O)NC(=O)N1 (centres undefined) |  |  |  | 27.4 µM | > 50 µM | 28 µM | > 50 µM | 32.2 µM | > 50 µM | 33.7 µM | > 50 µM | > 50 µM | > 50 µM |  | 
CN1CCN(c2nc(-c3ccncc3)nc3sc4c(c23)CCCCCC4)CC1 |  |  |  | 11.8 µM | 26 µM | 4.26 µM | 18.7 µM | 2.3 µM | 13.9 µM | 4.71 µM | 18.2 µM | 13.5 µM | 29.3 µM |  | 
Cc1c(C(=O)CSc2nc3ccccc3[nH]2)c(=O)n(-c2ccccc2)n1C |  | > 100 µM | > 100 µM |  |  |  |  |  |  |  |  |  |  | > 100 µM | 
CCCCCCCCCCCCOP(N)(=O)OCCCCCCCCCCCC | > 100 µM | > 100 µM | > 100 µM |  |  |  |  |  |  |  |  |  |  |  | 
CC1CCC2N(C1)CC1C3(O)CC45OC6(O)C(O)CCC4(C)C6CCC5C3(O)CC(O)C1(O)C2(C)O (centres undefined) |  |  |  |  | > 100 µM |  | > 100 µM |  | > 100 µM |  | > 100 µM |  | > 100 µM |  | > 100 µM
CC(NC(=O)c1ccccc1)(C(=O)O)C(=O)O |  |  |  |  | > 100 µM |  | > 100 µM |  | > 100 µM |  | > 100 µM |  | > 100 µM |  | > 100 µM
COc1nc(NC2OC(COC(C)=O)C(OC(C)=O)C(OC(C)=O)C2OC(C)=O)c(-c2csc(N)n2)c(=O)n1C (centres undefined) | > 100 µM | > 100 µM |  |  |  |  |  |  |  |  |  |  |  |  | 
CC(=O)Oc1ccc(/C=N/NC(N)=S)nc1 |  |  |  | 5.14 µM | > 100 µM | 11.2 µM | > 100 µM |  |  | 5.28 µM | > 100 µM | 5.39 µM | > 100 µM |  | 
COc1ccc(S(=O)(=O)N(C)CC(=O)O)cc1 |  | > 100 µM | > 100 µM |  |  |  |  |  |  |  |  |  |  | > 100 µM | 
C[N+](C)(C)CC1CCCC(C[N+](C)(C)C)C1O (centres undefined) | > 100 µM | > 100 µM | > 100 µM |  |  |  |  |  |  |  |  |  |  |  | 
O=C(NCCCCCCCNC(=O)OCc1ccc2c(Cl)cc(Cl)c(O)c2n1)OCc1ccc2c(Cl)cc(Cl)c(O)c2n1 |  |  |  | 0.297 µM | 0.931 µM | 1.13 µM | 2.45 µM | 1.4 µM | 5.35 µM | 0.625 µM | 2.16 µM | 1.33 µM | 3.95 µM |  | 
CC(=O)OC1CC2C(=O)C(=O)C1(C)C2(C)C (centres undefined) |  |  |  |  | > 100 µM |  | > 100 µM |  |  |  | > 100 µM |  | > 100 µM |  | > 100 µM
COc1cccc(/C=C/C(=O)c2cc3c(N)c(C(=O)Nc4cccc5ccccc45)sc3nc2C)c1 |  |  |  |  |  | 1.22 µM | 3.26 µM |  |  | 1.48 µM | 6.22 µM | 1.22 µM | 4.45 µM |  | 
COc1cc([N+](=O)[O-])c2ncccc2c1[N+](=O)[O-] |  |  |  | 3.9 µM | 15.1 µM | 11.6 µM | 24.8 µM | 3.87 µM | 29.4 µM | 4.18 µM | 17 µM | 3.1 µM | 11.7 µM |  | 
CCCCCCCCCCCCCc1nn[nH]n1 | 38.4 µM | 36.8 µM |  |  |  |  |  |  |  |  |  |  |  |  | 
Nc1[nH]c(=O)ncc1CO |  |  |  | > 100 µM | > 100 µM | > 100 µM | > 100 µM | > 100 µM | > 100 µM | > 100 µM | > 100 µM | > 100 µM | > 100 µM |  | 
CCOc1cc(-c2ccc[nH]2)[nH]c1/C=C1\N=C(C)C(C(=O)OC)=C1C |  |  |  | 0.0325 µM | 1.05 µM | 0.0171 µM | 0.279 µM | 0.0475 µM | 0.58 µM | 0.0357 µM | 2.13 µM | 0.0311 µM | 0.367 µM |  | 
COc1cnc2cc(C(=O)O)c3ccccc3c2c1 |  |  |  |  | > 100 µM |  | > 100 µM |  | > 100 µM |  | > 100 µM |  | > 100 µM |  | > 100 µM
